Data on 3 compounds can be found in DBAASP.

Test in all cases: ≥ marks a high value that may be exact or a test limit, other limits are often not marked, values filed in µg/mL are converted to µM
Experiment [1] relates to Bacillus subtilis CGMCC 1.3376.
Experiment [2] concerns Staphylococcus aureus CGMCC 1.8721.
The test system of experiment [3] is Klebsiella pneumoniae CGMCC 1.1736.
Experiment [4] deals with Pseudomonas aeruginosa CGMCC 1.2421.
The subject of experiment [5] is Escherichia coli CGMCC 1.8732.
In experiment [6] the test system is Staphylococcus epidermidis CGMCC 1.4260.
Experiment [7] deals with Acinetobacter baumannii AYE.
Experiment [8] has as its system Xanthomonas axonopodis pv. phaseoli.
The test system of experiment [9] is Enterococcus faecalis NCTC 775.
Experiment [10] deals with Acinetobacter baumannii.
In experiment [11] the test system is Staphylococcus aureus 15.
Experiment [12] relates to Pseudomonas syringae pv. tomato.
The subject of experiment [13] is Escherichia coli LEC 001.
For experiment [14], the system named is Escherichia coli NCTC 12923.
For experiment [15], the system named is Pseudomonas aeruginosa NCTC 13437.
The subject of experiment [16] is Enterococcus faecalis NCTC 12201.
Experiment [17] relates to Klebsiella pneumoniae M6.
The test system of experiment [18] is Klebsiella pneumoniae NCTC 13368.
For experiment [19], the system named is Escherichia coli CFI_161_NDM.
The subject of experiment [20] is Escherichia coli BL21.
The subject of experiment [21] is Staphylococcus aureus NCTC 9144.
Experiment [22] concerns Acinetobacter baumannii NCTC 13302.
Experiment [23] concerns Escherichia coli 319238.
Experiment [24] deals with Pseudomonas aeruginosa PAO1.
Experiment [25] relates to Acinetobacter baumannii ATCC 17987.
Experiment [26] deals with Escherichia coli CFI_160_KPC2.
Experiment [27] relates to Acinetobacter baylyi ADP1.
In experiment [28] the test system is Pseudomonas syringae.
The subject of experiment [29] is Streptococcus pyogenes GAS M1T1.
The test system of experiment [30] is Enterococcus faecalis NCTC 12204.
The subject of experiment [31] is Acinetobacter baumannii NCTC 13424.
The subject of experiment [32] is Xanthomonas axonopodis pv. phaseoli ATCC 9563.
The test system of experiment [33] is Pseudomonas aeruginosa BH02.
Experiment [34] concerns Pseudomonas aeruginosa BH01.
For experiment [35], the system named is Pseudomonas aeruginosa BH03.
In experiment [36] the test system is Pseudomonas aeruginosa BH04.

≈ marks a conversion by molar mass, not a printed value. Where “and” joins values, the source holds several entries; their conditions need not be identical. Identical values can stand only once. Some results are limits rather than exact numbers.

A word on the MIC: it is the lowest concentration that inhibits growth of the organism. Read a high MIC as weaker potency. As for `CC[C@H](C)[C@H](NC(=O)[C@H](CO)NC(=O)CNC(=O)[C@@H](NC(=O)[C@@H](N)CCCN=C(N)N)[C@@H](C)CC)C(=O)N[C@@H](CC(C)C)C(=O)NCC(=O)N[C@@H](CCCN=C(N)N)C(=O)N[C@@H](CC(C)C)C(=O)N[C@@H](C)C(=O)N[C@@H](CCCCN)C(=O)NCC(=O)N[C@@H](CC(C)C)C(=O)N1CCC[C@H]1C(=O)N[C@H](C(=O)N[C@@H](CC(C)C)C(=O)N[C@@H](CCCN=C(N)N)C(=O)N[C@@H](CO)C(=O)N[C@@H](Cc1c[nH]c2ccccc12)C(=O)N[C@H](C(=O)N[C@@H](CCCCN)C(=O)N[C@@H](CC(N)=O)C(=O)N[C@@H](CCCN=C(N)N)C(N)=O)[C@@H](C)CC)[C@@H](C)O` [RIGSILGRLAKGLPTLRSWIKNR], the MIC was 12.5 µM (≈ 32.6 µg/mL) in experiment [1]; not below 100 µM in [2]; 12.5 µM (≈ 32.6 µg/mL) in [3]; 12.5 µM (≈ 32.6 µg/mL) in [4]; 12.5 µM (≈ 32.6 µg/mL) in [5]; 3.13 µM (≈ 8.15 µg/mL) in [6].
As to `CC[C@H](C)[C@H](NC(=O)[C@H](CCCCN)NC(=O)[C@H](CCC(=O)O)NC(=O)[C@H](CCCCN)NC(=O)[C@H](Cc1c[nH]c2ccccc12)NC(=O)[C@H](C)N)C(=O)N[C@@H](CCCN=C(N)N)C(=O)N[C@@H](CCCCN)C(=O)N[C@@H](CCCCN)C(=O)N[C@@H](CC(C)C)C(=O)N[C@@H](CCCCN)C(=O)N[C@@H](CC(N)=O)C(=O)N[C@@H](CCC(=O)O)C(=O)N[C@H](C(=O)N[C@@H](CCCCN)C(=O)N[C@@H](CCCCN)C(=O)N[C@@H](CCCCN)C(=O)N[C@@H](Cc1c[nH]c2ccccc12)C(=O)N[C@@H](CCCN=C(N)N)C(=O)N[C@@H](CCCCN)C(=O)N[C@@H](C)C(=O)N[C@H](C(=O)N[C@H](C(=O)N[C@@H](C)C(=O)N[C@@H](Cc1c[nH]c2ccccc12)C(=O)O)[C@@H](C)CC)C(C)C)[C@@H](C)CC` [AWKEKIRKKLKNEIKKKWRKAVIAW], the minimum inhibitory concentration (MIC) in experiment [7] is 0.315 µM (≈ 1 µg/mL); in experiment [8], 0.0786 µM (≈ 0.25 µg/mL); in [9], not below 40.3 µM; in experiment [10], 0.315 µM (≈ 1 µg/mL); in experiment [11], not below 40.3 µM; in [12] it was 0.0786 µM (≈ 0.25 µg/mL). For the same compound, the MIC in experiment [13] was 2.52 µM (≈ 8 µg/mL); in experiment [14] it was 0.157 µM (≈ 0.5 µg/mL); in experiment [15], not below 40.3 µM; in [16] it was not below 40.3 µM; in experiment [17], 2.52 µM (≈ 8 µg/mL); in [18] it was 5.03 µM (≈ 16 µg/mL). The MIC in experiment [19] is 0.315 µM (≈ 1 µg/mL); in [20] it was 2 µM (≈ 6.36 µg/mL); in experiment [21], 2.52 µM (≈ 8 µg/mL); in experiment [22], 0.315 µM (≈ 1 µg/mL); in experiment [23] it was 1.26 µM (≈ 4 µg/mL); in experiment [24], 8 µM and 5.03 µM. Besides, the minimal inhibitory concentration (MIC) came to 0.315 µM (≈ 1 µg/mL) in [25]; 0.629 µM (≈ 2 µg/mL) in experiment [26]; 0.629 µM (≈ 2 µg/mL) in [27]; 8 µM (≈ 25.4 µg/mL) in [28]; 8 µM (≈ 25.4 µg/mL) in [29]; 5.03 µM (≈ 16 µg/mL) in [30]. Moreover, the MIC in experiment [31] stood at 0.629 µM (≈ 2 µg/mL); in experiment [32], 0.25 µM (≈ 0.795 µg/mL).
For the compound `CC(=O)N[C@@H](CCC(=O)O)C(=O)N[C@@H](CCC(=O)O)C(=O)N[C@@H](CCC(=O)O)C(=O)N[C@@H](CCC(=O)O)C(=O)N[C@@H](C)C(=O)N[C@@H](C)C(=O)N[C@@H](C)C(=O)NCC(=O)N[C@@H](Cc1c[nH]c2ccccc12)C(=O)NCC(=O)N[C@@H](CC(C)C)C(=O)N[C@@H](CCCN=C(N)N)C(=O)N[C@@H](CCCN=C(N)N)C(=O)N[C@@H](CC(C)C)C(=O)N[C@@H](CC(C)C)C(=O)N[C@@H](CCCCN)C(=O)N[C@@H](Cc1ccc(O)cc1)C(=O)NCC(=O)N[C@@H](CCCCN)C(=O)N[C@@H](CCCN=C(N)N)C(=O)N[C@@H](CO)C(N)=O` [EEEEAAAGWGLRRLLKYGKRS], the MIC in experiment [33], in experiment [34], in experiment [35], in experiment [24] and in [36] was 26.4 µM (≈ 65.1 µg/mL) throughout.
